How the values were obtained:
CYP1A2 = CYP1A2 (Homo sapiens (Human), UniProt P05177); assay: In vitro CYP inhibition assay; type: biochemical
Protocol: Averages (minus background) and IC50 values were calculated.

[1] = Pharmacokinetics in beagle dogs; type: in vivo; conditions: dog, plasma
[2] = test system: intact male Sprague-Dawley rats; assay: Anabolic and androgenic activity in intact male rats, daily oral gavage; type: in vivo, rat
Protocol: The test article for this study was weighed and dissolved in 10% DMSO (Fisher) diluted with PEG 300 (Acros Organics, N.J.) for preparation of the appropriate dosage concentrations. The animals were housed in groups of 2 to 3 animals per cage. Animals were randomly assigned to one of seven groups consisting of 4 to 5 animals per group. Control groups (intact and ORX) were administered vehicle daily. […] Where appropriate, animals were castrated on day one of the study. Treatment with compound of formula S-II began nine days post ORX and was administered daily via oral gavage for fourteen days.
The animals were sacrificed under anesthesia (ketamine/xyalzine, 87:13 mg/kg) and body weights were recorded. In addition, ventral prostate, seminal vesicles, and levator ani muscle were removed, individually weighed, normalized to body weight, and expressed as a percentage of intact control. Student's T-test was used to compare individual dose groups to the intact control group. Significance was defined a priori as a P-value<0.05. Ventral prostate and seminal vesicle weights were evaluated as a measure of androgenic activity, whereas levator ani muscle weight was evaluated as a measure of anabolic activity. Blood was collected from the abdominal aorta, centrifuged, and sera were frozen at −80° C. prior to determination of serum hormone levels. Serum luteinizing hormone (LH) and follicle stimulating hormone (FSH) concentrations were determined.
(§1) The test article for this study was weighed and dissolved in 10% DMSO (Fisher) diluted with PEG 300 (Acros Organics, N.J.) for preparation of the appropriate dosage concentrations. The animals were housed in groups of 2 to 3 animals per cage. Animals were randomly assigned to one of seven groups consisting of 4 to 5 animals per group. Control groups (intact and ORX) were administered vehicle daily. Compound of formula S-XXIII was administered via oral gavage at doses of 0.01, 0.03, 0.1, 0.3, 0.75, and 1 mg/day to both intact and ORX groups. Where appropriate, animals were castrated on day one of the study. Treatment with compound of formula S-XXIII began nine days post ORX and was administered daily via oral gavage for fourteen days.
as §1, with “S-XXIV” for “S-XXIII”, “study.” for “study. Treatment with compound of formula S-XXIII began nine days post ORX and was administered daily via oral gavage for fourteen days.”

Sequence of CYP1A2 (P05177 whole entry): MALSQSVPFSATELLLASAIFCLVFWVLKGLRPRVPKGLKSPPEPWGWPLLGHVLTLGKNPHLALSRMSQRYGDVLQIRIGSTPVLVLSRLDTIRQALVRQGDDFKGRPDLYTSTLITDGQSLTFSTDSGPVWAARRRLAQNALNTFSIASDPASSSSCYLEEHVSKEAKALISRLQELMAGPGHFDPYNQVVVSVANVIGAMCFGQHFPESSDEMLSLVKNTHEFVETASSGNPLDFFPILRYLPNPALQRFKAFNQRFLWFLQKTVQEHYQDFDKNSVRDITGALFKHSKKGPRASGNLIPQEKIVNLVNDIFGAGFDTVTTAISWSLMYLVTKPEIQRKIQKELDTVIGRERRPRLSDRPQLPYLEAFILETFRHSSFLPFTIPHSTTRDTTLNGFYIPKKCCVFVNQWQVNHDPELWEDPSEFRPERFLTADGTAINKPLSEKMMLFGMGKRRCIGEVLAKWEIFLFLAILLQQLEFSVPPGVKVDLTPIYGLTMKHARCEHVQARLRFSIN

**Q.** What does the source list for `C[C@](O)(COc1ccc(Cl)c(F)c1)C(=O)Nc1ccc(C#N)c(C(F)(F)F)c1` [S-II, (S)-3-(4-chloro-3-fluorophenoxy)-N-(4-cyano-3-(trifluoromethyl)phenyl)-2-hydroxy-2-methylpropanamide]?
**A.** IC50 (CYP1A2): > 20 µM; clearance ([1]; oral): 0.36 ± 0.12 mL/min/kg; half-life ([1]; oral): 37 ± 26.8 h; Vd ([1]; oral, read-out: Vz): 1.27 ± 0.352 L/kg; bioavailability ([1]; po, peroral): 72.5%; Levator ani muscle weight ([2]; 0.01 mg/day oral): 100%±10%; Prostate weight ([2]; 0.01 mg/day oral): 117%±20%; Levator ani muscle weight ([2]; 0.03 mg/day oral): 98%±7%; Prostate weight ([2]; 0.03 mg/day oral): 98%±15%; Levator ani muscle weight ([2]; 0.1 mg/day oral): 110%±5%; Prostate weight ([2]; 0.1 mg/day oral): 82%±20%; Levator ani muscle weight ([2]; 0.3 mg/day oral): 110%±5%; Prostate weight ([2]; 0.3 mg/day oral): 62%±5%; Levator ani muscle weight ([2]; 0.75 mg/day oral): 125%±10%; Prostate weight ([2]; 0.75 mg/day oral): 107%±30%; Levator ani muscle weight ([2]; 1 mg/day oral): 129%±10%; Prostate weight ([2]; 1 mg/day oral): 110%±14%

— patent US9278914B2, “SARMs and method of use thereof” (UNIVERSITY OF TENNESSEE RESEARCH FOUNDATION, priority 2004, dated 2016)
